Structures can show the parent of a compound that is named as a salt. Where two headings read alike, the source gives them in different places.
Key:
dopamine D-2 receptor = dopamine D-2 receptor (Rattus norvegicus, UniProt P61169); assay: biochemical; assay type: binding; details: rat caudate, [125I]-p-aminophenylethyl spiroperidol; read-out: D-2 Ki
Experimental: Homogenized rat caudate was the source of the D-2 receptors. […] The molar affinity of the compound for the receptor binding site was calculated by the same method used for the D-1 receptor assay, assuming a competitive interaction between the compound and the radiolabeled ligand.

dopamine D-1 receptor [1] = biological target: T1, dopamine D-1 receptor (Rattus norvegicus, UniProt P18901); details: read-out: D-1 Ki; rat caudate, [125I]SCH-23982
From the text: (§1) The compounds compete with the radiolabeled ligand for occupancy of the receptors and the molar potency of each compound was quantified.
(§2) The Ki values are inversely proportional to the affinity of the compound for the receptor.

dopamine D-1 receptor [2] = details: for Intrinsic Activity (adenylate cyclase assay): dopamine = 100, goldfish retina or rat striatum; for EC50: read-out: EC50 (agonist activity in adenylate cyclase assay), tissue from goldfish retina or rat striatum
Experimental: In order to determine agonist activity, cell-free tissue homogenates are incubated in an ionic buffer solution containing ATP and the compound being evaluated. The tissue was obtained from either goldfish retina or rat striatum.

[3] = test system: striatal dopamine receptors; assay: Rotation behavior assay of in vivo activity (6-hydroxydopamine lesioned rat rotational model); details: for ED50 s.c. (rotation behavior): injected subcutaneously
dopamine D-1 receptor [4] = biological target: T1, dopamine D-1 receptor; assay: biochemical; details: D-1 Ki, rat caudate, [125I]SCH-23982
From the text: as §1, §2

T1 sequence (P18901 whole entry): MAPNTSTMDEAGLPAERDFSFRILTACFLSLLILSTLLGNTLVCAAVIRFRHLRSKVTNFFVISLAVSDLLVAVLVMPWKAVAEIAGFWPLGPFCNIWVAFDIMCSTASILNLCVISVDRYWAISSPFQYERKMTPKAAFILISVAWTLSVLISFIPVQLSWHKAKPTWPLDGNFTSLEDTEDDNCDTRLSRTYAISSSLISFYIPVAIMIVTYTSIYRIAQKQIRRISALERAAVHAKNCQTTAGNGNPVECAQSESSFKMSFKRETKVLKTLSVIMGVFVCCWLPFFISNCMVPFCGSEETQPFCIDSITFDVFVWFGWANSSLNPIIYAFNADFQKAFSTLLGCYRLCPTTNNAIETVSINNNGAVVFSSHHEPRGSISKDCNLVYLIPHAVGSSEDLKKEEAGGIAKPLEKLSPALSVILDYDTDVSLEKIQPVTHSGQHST
dopamine D-2 receptor, sequence (P61169 whole entry): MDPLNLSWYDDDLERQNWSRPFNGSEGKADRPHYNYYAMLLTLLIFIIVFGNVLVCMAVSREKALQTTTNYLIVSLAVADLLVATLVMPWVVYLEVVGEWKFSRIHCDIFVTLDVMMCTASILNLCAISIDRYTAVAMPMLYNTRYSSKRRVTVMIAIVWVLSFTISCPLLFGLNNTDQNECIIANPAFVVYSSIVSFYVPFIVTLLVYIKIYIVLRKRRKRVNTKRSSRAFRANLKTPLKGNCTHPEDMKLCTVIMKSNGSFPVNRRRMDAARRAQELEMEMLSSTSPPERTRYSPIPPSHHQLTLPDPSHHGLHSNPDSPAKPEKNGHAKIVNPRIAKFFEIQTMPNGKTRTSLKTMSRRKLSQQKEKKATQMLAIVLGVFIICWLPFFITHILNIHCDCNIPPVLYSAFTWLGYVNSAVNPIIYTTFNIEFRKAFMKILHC

Ki (dopamine D-2 receptor) | Ki (dopamine D-1 receptor [1]) | Intrinsic Activity (adenylate cyclase assay) (dopamine D-1 receptor [2]) | EC50 (dopamine D-1 receptor [2]) | Ki (dopamine D-1 receptor [4]) | EC50 (dopamine D-1 receptor [2]; Hydrobromide) | Intrinsic Activity (adenylate cyclase assay) (dopamine D-1 receptor [2]; Hydrobromide) | SMILES | ED50 s.c. (rotation behavior) [3] | ED50 oral (rotation behavior) [3]
17000 nM | 1800 nM | 105 | 31 nM | – | – | – | CCCCCC(NC(=O)CCl)[C@@H]1Cc2c(ccc(O)c2O)[C@H](CN)O1 (relative stereo) [Example 165] | – | –
190 nM | 51 nM | 82 | 170 nM | – | – | – | C=CCNC[C@@H]1O[C@H](c2ccccc2)Cc2c1ccc(O)c2O (stereo in doubt) [Example 130] | 0.13 µmol/kg | 8 µmol/kg
> 10000 nM | 550 nM | 83 | 300 nM | – | – | – | NC[C@@H]1C[C@H](C23CC4CC(CC(C4)C2)C3)Cc2c1ccc(O)c2O (relative stereo) [Example 235] | – | –
830 nM | 790 nM | 140 | 1450 nM | – | – | – | CCCCCC(NC(C)=O)[C@@H]1Cc2c(ccc(O)c2O)[C@H](CN)O1 (relative stereo) [Example 163] | – | –
– | 1900 nM | 92 | 230 nM | – | – | – | CCC1Cc2c(ccc(O)c2O)C(CN)O1 (stereo not drawn) [Example 67] | – | –
3200 nM | 190 nM | 78 | 220 nM | – | – | – | CN1CCC2=C(C1)c1ccc(O)c(O)c1CC2c1ccccc1 (stereo not drawn) [Example 246] | 0.54 µmol/kg | –
> 10000 nM | 850 nM | 53 | 3100 nM | – | – | – | CCNCC1=CC(c2ccccc2)Cc2c1ccc(O)c2O (stereo not drawn) [Example 153] | – | –
> 10000 nM | 900 nM | 71 | 500 nM | – | – | – | CC(C)OC(=O)CCC(=O)Oc1ccc2c(c1OC(=O)CCC(=O)OC(C)C)CC(c1ccccc1)C=C2CN (stereo not drawn) [Example 24] | – | –
> 10000 nM | 4600 nM | 62 | 60 nM | – | – | – | NCC1c2ccc(O)c(O)c2CC(c2ccccc2)C1CCO (stereo not drawn) [Example 45, [1,2-trans]1-Aminomethyl-5,6-dihydroxy-2-(2'-hydroxy-1'-ethyl)-3-phenyl-1,2,3,4-tetrahydronaphthalene Formic Acid Salt] | – | –
> 10000 nM | – | 85 | 90 nM | 300 nM | – | – | NCC1=CC(C23CC4CC(CC(C4)C2)C3)Cc2c1ccc(O)c2O (stereo not drawn) [Example 231] | > 3 µmol/kg | –
600 nM | – | 32 | 200 nM | 50 nM | – | – | CN1CCC2=C(C1)c1ccc(O)c(O)c1CC21CCCCCC1 [Example 249] | 0.12 µmol/kg | –
> 10000 nM | 4100 nM | – | – | – | – | – | C[C@H](N)C1OC(c2ccccc2)Cc2c1ccc(O)c2O (stereo partly drawn) [Example 108, [1,3-cis]1-(1S-(1-Amino)ethyl)-5,6-dihydroxy-3-phenyl-3,4-dihydro-1H-2-benzopyran] | – | –
4600 nM | – | 79 | 22 nM | 64 nM | – | – | CN(C)C[C@@H]1O[C@H](C23CC4CC(CC(C4)C2)C3)Cc2c1ccc(O)c2O [Example 148] | 0.12 µmol/kg | 11 µmol/kg
4600 nM | 390 nM | 65 | 17 nM | – | – | – | Oc1ccc2c(c1O)C[C@H](c1ccccc1)C[C@H]2[C@H]1CCCN1 (relative stereo) [Example 181, [1,3-cis]5.6-Dihydroxy-3-phenyl-1-(2'-pyrrolidinyl)-1,2,3,4-tetrahydronaph-thalene Hydrobromide] | – | –
900 nM | – | 128 | 22 nM | 76 nM | – | – | NC[C@@H]1O[C@H](CC23CC4CC(CC(C4)C2)C3)Cc2c1ccc(O)c2O (relative stereo) [Example 90] | 0.6 µmol/kg | 8 µmol/kg
1000 nM | – | 108 | 20 nM | 30 nM | – | – | CNCC1OC(CC(C)(C)C)Cc2c1ccc(O)c2O (stereo not drawn) [Example 217] | 0.12 µmol/kg | –
1500 nM | – | 89 | 40 nM | 20 nM | – | – | CNC[C@@H]1O[C@H](C2(C)CCCCC2)Cc2c1ccc(O)c2O (relative stereo) [Example 226] | > 1 µmol/kg | –

Ki (dopamine D-2 receptor) | Ki (dopamine D-1 receptor [1]) | Intrinsic Activity (adenylate cyclase assay) (dopamine D-1 receptor [2]) | EC50 (dopamine D-1 receptor [2]) | Ki (dopamine D-1 receptor [4]) | EC50 (dopamine D-1 receptor [2]; Hydrobromide) | Intrinsic Activity (adenylate cyclase assay) (dopamine D-1 receptor [2]; Hydrobromide) | SMILES | ED50 s.c. (rotation behavior) [3] | ED50 oral (rotation behavior) [3]
710 nM | 670 nM | 107 | 690 nM | – | – | – | CCCCCC(NC(C)=O)[C@@H]1Cc2c(ccc(O)c2O)[C@H](CN)O1 (relative stereo) [Example 162] | – | –
1800 nM | 20 nM | 75 | 30 nM | – | – | – | CN1CCC2=C(C1)c1ccc(O)c(O)c1CC2c1ccccc1 (stereo not drawn) [Example 247] | 0.014 µmol/kg | –
1300 nM | – | 98 | – | 47 nM | 52 nM | – | Br.CN1CCC2=C(C1)c1ccc(O)c(O)c1CC2c1ccccc1 (stereo not drawn) [Example 210, 2-Methyl-5-phenyl-1,2,3,4,5,6-hexahydrobenzo[h]isoquinoline-7,8-diol Hydrobromide] | 0.005 µmol/kg | 1.6 µmol/kg
1500 nM | – | 110 | 48 nM | 160 nM | – | – | Oc1ccc2c(c1O)CC1(CCCC1)C1=C2CNCC1 [Example 204] | 1.1 µmol/kg | 18 µmol/kg
2700 nM | – | 52 | 70 nM | 40 nM | – | – | NC[C@@H]1O[C@H](C2(c3ccccc3)CCCCC2)Cc2c1ccc(O)c2O (relative stereo) [Example 223] | > 3 µmol/kg | –
3700 nM | – | 114 | 5 nM | 3 nM | – | – | CC(C)CC1Cc2c(ccc(O)c2O)C(CN)O1 (stereo not drawn) [Example 216] | 0.07 µmol/kg | –
> 10000 nM | – | 110 | 54 nM | 37 nM | – | – | CC(C)(C)C[C@H]1Cc2c(ccc(O)c2O)[C@@H](CN)O1 (relative stereo) [Example 104] | 0.13 µmol/kg | 5 µmol/kg
1400 nM | – | 130 | 7 nM | 21 nM | – | – | CC(C)C[C@@H]1Cc2c(ccc(O)c2O)[C@H](CN)O1 (relative stereo) [Example 89] | 0.12 µmol/kg | 7 µmol/kg
> 10000 nM | – | 113 | 110 nM | 470 nM | – | – | NCC1OC2(CCCCCC2)Cc2c1ccc(O)c2O (stereo not drawn) [Example 93] | 0.9 µmol/kg | –
410 nM | – | 115 | 10 nM | 20 nM | – | – | CNCC1OC(CC2CCCC2)Cc2c1ccc(O)c2O (stereo not drawn) [Example 218] | 0.93 µmol/kg | –
500 nM | 2300 nM | 107 | 93 nM | – | – | – | NC[C@@H]1O[C@H](CCOCc2ccccc2)Cc2c1ccc(O)c2O (relative stereo) [Example 77] | – | –
1700 nM | – | 76 | 130 nM | 90 nM | – | – | CNC[C@@H]1O[C@H](C2(c3ccccc3)CCCCC2)Cc2c1ccc(O)c2O (relative stereo) [Example 225] | > 3 µmol/kg | –
6600 nM | – | 94 | 46 nM | 160 nM | – | – | C=CCNC[C@H]1O[C@@H](c2ccccc2)Cc2c1ccc(O)c2O (stereo in doubt) [Example 126] | 0.16 µmol/kg | 28 µmol/kg
1400 nM | – | 82 | 120 nM | 49 nM | – | – | CNC[C@H]1O[C@@H](CC(C)(C)C)Cc2c1ccc(O)c2O (relative stereo) [Example 146] | 0.12 µmol/kg | 7 µmol/kg
1400 nM | – | – | – | 54 nM | 33 nM | 83 | Oc1ccc2c(c1O)CC1(CCCCCC1)C1=C2CNCC1 [Example 199, Spiro[cycloheptane-1,5'-(1',2',3',4',5',6'-hexahydrobenzo[h]isoquinoline)]-7',8'-diol Hydrobromide] | 1.5 µmol/kg | 31 µmol/kg
2500 nM | 5800 nM | 58 | 7000 nM | – | – | – | CCCNCC1=CC(c2ccccc2)Cc2c1ccc(O)c2O (stereo not drawn) [Example 151] | – | –
12000 nM | 59000 nM | – | – | – | – | – | CCCN(CCC)CC1=CC(c2ccccc2)Cc2c1ccc(O)c2O (stereo not drawn) [Example 152] | – | –
